# Data taken from patent publication US4146717A, “Nitroquinazolinone compounds having antiviral properties” (priority 1974, dated 1979).
# Like-named read-outs stand apart in the source and are kept apart here.
# Experiments:
# [1] = test system: Influenza virus NWS strain; type: in vivo, mice (ICR strain); details: 14 days observation, control 1/8
# [2] = test system: vaccinia virus IHD strain; experiment: microbe, parasite or virus in culture; type: cell-based; details: for MIC: Orthopoxvirus vaccinia, in Gallus gallus, 72 h, read-out: minimum inhibitory concentration (MIC); for Chemotherapeutic index (MTC/MIC): chick embryo fibroblast cells, 4320 min
# [3] = test system: adeno virus type 8 Kanehisa strain; details: concentration 40; 5th day after infection; non-medicated control 512
# [4] = Acute toxicity in mice, intraperitoneal; type: in vivo, mice (ddN strain); details: for No. of survivors/No. of tested: 7 days observation
# Description: The compounds of the present invention are not only very effective but also show no side effects. For example, acute toxicity of the present compound by the intraperitoneal injection in mice is remarkably lower than Methisazone as shown in Table III.
# animals: male mice weighing 17 to 20 g of ddN strain
# administration: intraperitoneally, suspension in 0.5% carboxymethyl
# observation period: 7 days after an administration
# [5] = test system: vaccinia virus IHD strain; type: in vivo, mice (ICR strain); details: -2 to 100 hours after virus challenge, 12 days observation; for Survival rate, SC: 100 mg/kg subcutaneously; for Survival rate, PO: 100 mg/kg orally
# [6] = test system: parainfluenza virus type 1, Sendai virus; experiment: Effects on parainfluenza virus multiplication in chick embryo fibroblast cell culture (haemagglutinating titration); type: cell-based; details: 2 days at 37° C, non-medicated control 32
# Protocol: Effects on parainfluenza virus multiplication in chick embryo fibroblast cell culture.
# A general procedure of haemagglutinating titration was employed. Monolayers of chick embryo fibroblast cells were prepared by the same procedure as described in Example 12. Parainfluenza virus type 1, haemagglutinating virus of Japan (HVJ), so called Sendai virus was challenged on 3rd day monolayer cell sheet. […] After 2 days' incubation at 37° C., the cells were harvested, disrupted by freezing and thawing and centrifuged. The haemagglutinating titre of the supernatant was assayed using 1% guinea pig red blood cell as usual.
# cells: chick embryo fibroblast cell
# virus: parainfluenza virus type 1, Sendai virus
# [7] = test system: herpes simplex virus HF strain; experiment: Effects on herpes simplex virus multiplication in chick embryo fibroblast cell culture (plaque reduction); type: cell-based; details: 5 μg/ml, 4 days at 37° C; for Average number of plaques: non-medicated control 45; for inhibition at 5 µg/mL: Fibroblast, 96 h, read-out: Percentage inhibition of occurrences of plaques
# Protocol: Effects on herpes simplex virus multiplication in chick embryo fibroblast cell culture.
# A general procedure of plaque-reduction method was employed. Monolayers of chick embryo fibroblast cells were prepared by a general procedure, i.e., trypsinization of 10 day old chick embryo and then 2 days' incubation in Eagle's minimum essential medium (Eagle's MEM) containing a 5% calf serum at 37° C. in a plaque tube. Then, growth medium was discarded and about 100 plaque forming units (PFU) of herpes simplex virus HF strain per plaque tube were challenged. […] After 4 day's incubation at 37° C., the number of plaques was counted and compared with the controlled plaque tube without test compounds.
# cells: chick embryo fibroblast cells
# virus: herpes simplex virus HF strains
# observation: by counting the number of plaques after 4 days' incubation
# [8] = Toxic effects in chick embryo fibroblast cell culture (minimum toxic concentration); details: chicken, chick embryo fibroblast cells
# [9] = cited from earlier work; for undesirable side effects: clinical
# [10] = test system: DNA type viruses such as herpes simplex and vaccinia; details: clinical use; cited from earlier work
SMILES,MIC [2] [µg/mL],MCC at 72 h [8] [µg/mL],Chemotherapeutic index (MTC/MIC) ([2]; vaccinia virus),other results
O=c1nc(-c2ccccc2)c2cc([N+](=O)[O-])ccc2n1CC1CCCCO1 (centres unmarked) [compound 5],0.2,> 100,–,"Survival rate ([1]; 10 mg/kg subcutaneously): 4/8; Survival rate ([1]; 50 mg/kg subcutaneously): 6/8; Chemotherapeutic index (MTC/MIC) [2]: > 500; Haemagglutinating titre [3]: 64; No. of survivors/No. of tested ([4]; 1000 mg/kg intraperitoneally): 5/5; No. of survivors/No. of tested ([4]; 2000 mg/kg intraperitoneally): 4/5; Survival rate, SC [5]: 100%; Haemagglutinating titre ([6]; 12.5 μg/ml): 4; Haemagglutinating titre ([6]; 25 μg/ml): < 2; Average number of plaques [7]: 9; inhibition at 5 µg/mL [7]: 80%"
NC12CC3CC(CC(C3)C1)C2 [Amantadine],–,–,–,undesirable side effects [9]: severe side effect on central nervous system
O=c1nc(-c2ccccc2)c2cc([N+](=O)[O-])ccc2n1CC1CCCCCC1 [compound 1],0.1,100,1000,–
O=c1nc(-c2ccccc2)c2cc([N+](=O)[O-])ccc2n1CC1CC1 [compound 18],5,> 100,> 20,–
CCN(CC)C(=O)Cn1c(=O)nc(-c2ccccc2)c2cc([N+](=O)[O-])ccc21 [compound 17],5,> 100,> 20,–
O=c1nc(C2CCCCC2)c2cc([N+](=O)[O-])ccc2n1CC1CC1 [compound 21],5,50,10,–
O=c1nc(-c2ccccc2)c2cc([N+](=O)[O-])ccc2n1Cc1ccccc1 [compound 11],0.6,25,40,"Survival rate, SC [5]: 100%"
O=c1nc(-c2ccccc2)c2cc([N+](=O)[O-])ccc2n1CC1CCCO1 (centres unmarked) [compound 14],1.25,> 100,> 80,"Haemagglutinating titre [3]: 32; No. of survivors/No. of tested ([4]; 1000 mg/kg intraperitoneally): 5/5; No. of survivors/No. of tested ([4]; 2000 mg/kg intraperitoneally): 4/5; Survival rate, SC [5]: 100%"
O=c1[nH]c(=O)n([C@H]2C[C@H](O)[C@@H](CO)O2)cc1I [Idoxuridine],–,–,–,antiviral spectrum [10]: only effective against DNA type viruses such as herpes simplex and vaccinia; toxicity limiting use ([9]; clinical use): it can only be used by topical application because of its toxicity
O=c1nc(-c2ccccc2)c2cc([N+](=O)[O-])ccc2n1Cc1cccs1 [compound 12],0.6,50,80,–
O=c1nc(-c2ccccc2)c2cc([N+](=O)[O-])ccc2n1Cc1ccccn1 [compound 6],0.2,50,250,–
O=c1nc(-c2ccccc2Cl)c2cc([N+](=O)[O-])ccc2n1CC1CC1 [compound 20],5,50,10,–
"CN1C(=O)C(=NNC(N)=S)c2ccccc21 [Methisazone, 1-methylindole-2,3-dione 3-thiosemicarbazone, reference compound]",5,20,4,"minimum inhibitory concentration (MIC) ([2]; vaccinia virus IHD strain, 1.1 × 10^4 PFU/tube, CPE after 3 days' incubation at 37° C): 5 µg/mL; No. of survivors/No. of tested ([4]; 1000 mg/kg intraperitoneally): 3/5; No. of survivors/No. of tested ([4]; 2000 mg/kg intraperitoneally): 0/5; gastro-duodenal hemorrhage and intestinal ulceration ([4]; mice of the acute toxicity test): Severe gastro-duodenal hemorrhage and intestinal ulceration were observed in dead mice; Survival rate, PO [5]: 100%; Survival rate, SC [5]: 100%; undesirable side effects [9]: severe vomiting, dermatitis and jaundice"
Cc1ccccc1Cn1c(=O)nc(-c2ccccc2)c2cc([N+](=O)[O-])ccc21 [compound 9],0.25,5,20,Average number of plaques [7]: 2; inhibition at 5 µg/mL [7]: 96%
O=c1nc(-c2ccccc2)c2cc([N+](=O)[O-])ccc2n1CC1CCCCCCC1 [compound 4],0.1,100,1000,–
O=c1nc(-c2ccccc2)c2cc([N+](=O)[O-])ccc2n1CCC1CCCCC1 [compound 15],5,> 100,> 20,–
O=c1nc(-c2cccs2)c2cc([N+](=O)[O-])ccc2n1CC1CCCCO1 (centres unmarked) [compound 10],0.4,> 100,> 250,–
O=c1nc(-c2ccccc2)c2cc([N+](=O)[O-])ccc2n1CC1CCCCC1 [compound 3],0.1,100,1000,"Haemagglutinating titre [3]: 32; Survival rate, PO [5]: 100%; Survival rate, SC [5]: 100%"
O=c1nc(-c2ccccc2)c2cc([N+](=O)[O-])ccc2n1Cc1ccccc1Cl [compound 8],0.25,5,20,–
CSCn1c(=O)nc(-c2ccccc2)c2cc([N+](=O)[O-])ccc21 [compound 22],5,50,10,–
O=c1nc(-c2ccccc2)c2cc([N+](=O)[O-])ccc2n1CC1CCCC1 [compound 7],0.2,> 100,> 500,–
CCOCCn1c(=O)nc(-c2ccccc2)c2cc([N+](=O)[O-])ccc21 [compound 19],5,> 100,> 20,–
O=c1nc(-c2ccccc2)c2cc([N+](=O)[O-])ccc2n1C1CCCCC1 [compound 2],0.1,100,1000,Haemagglutinating titre ([6]; 12.5 μg/ml): 4; Haemagglutinating titre ([6]; 25 μg/ml): 2
O=c1nc(-c2ccccc2)c2cc([N+](=O)[O-])ccc2n1Cc1ccco1 [compound 13],1,100,100,–
